This note sets out measurements from paper PMC11110727, “Exploiting thiol-functionalized benzosiloxaboroles for achieving diverse substitution patterns – synthesis, characterization and biological evaluation of promising antibacterial agents” (RSC Medicinal Chemistry, 2024).

One experiment concerns A. baumannii ATCC 19606. Put plainly: Antibacterial activity: MIC/MBC, MIC with PAβN, disc-diffusion. The class given is cell-based, Acinetobacter baumannii. The settings on record: Acinetobacter baumannii, ATCC19606. In outline: (§1)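 Read-outs are disc-diffusion zones, broth-microdilution MICs and bactericidal concentrations (MBC), following EUCAST and CLSI guidance. The efflux contribution was probed by rerunning MICs with 20 μg mL^−1 PAβN in MgSO4-supplemented (1 mM) Mueller–Hinton II broth, a ≥4-fold decrease being significant.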
Background: In agar diffusion tests the substance spreads into inoculated agar from a disc or well.

The next experiment deals with E. coli ATCC 25922. Described as above. In kind it is cell-based, Escherichia coli. The settings on record: for MIC: Escherichia coli, ATCC25922; for -fold reduction of MIC in the presence of PAβN: PAβN 20 μg mL^−1, MHB + 1 mM MgSO4. In outline:
as §1

A further experiment deals with P. aeruginosa ATCC 27853. Described as above. In kind it is cell-based. The settings on record: Pseudomonas aeruginosa, ATCC27853. A digest of the protocol: as §1
Experiment [1] deals with S. maltophilia ATCC 13637. The experiment is described as above. In kind it is cell-based, Stenotrophomonas maltophilia. The settings on record: Stenotrophomonas maltophilia, ATCC13637. In outline:
as §1

Experiment [2] has as its system S. maltophilia ATCC 12714. The description is as above. The class given is cell-based, Stenotrophomonas maltophilia. The settings on record: Stenotrophomonas maltophilia, ATCC12714. In outline:
as §1

The next experiment deals with B. cepacia ATCC 25416. Nature of the experiment: Antibacterial activity: MIC/MBC, disc-diffusion. In kind it is cell-based, Burkholderia cepacia. The settings on record: Burkholderia cepacia, ATCC25416. In outline:
as §1

The subject of experiment [3] is B. bronchiseptica ATCC 4617. Put plainly: Antibacterial activity: MIC/MBC, disc-diffusion. The settings on record: Bordetella bronchiseptica, ATCC4617. The class given is cell-based, Bordetella bronchiseptica. In outline: as §1
In a further experiment the test system is C. tropicalis IBA 171. Nature of the experiment: Antifungal activity: MIC/MFC, disc-diffusion. The settings on record: Candida tropicalis, IBA171. The class given is cell-based. In outline: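 Strains were subcultured twice for 24–48 h at 30 °C, on TSA for bacteria and Sabouraud dextrose agar for yeasts. Disc-diffusion and MIC followed EUCAST/CLSI recommendations, and MBC/MFC followed CLSI. Compounds were dissolved in DMSO, with fluconazole or linezolid as references.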

The next experiment concerns S. aureus ATCC 6538P. Put plainly: Antibacterial activity: MIC/MBC determination and disc-diffusion. In kind it is cell-based, Staphylococcus aureus. The settings on record: for diameter of inhibition zone: disc-diffusion, — = zone not observed; for MIC / MBC: Staphylococcus aureus, ATCC6538P. In outline:
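CLSI recommendations governed the MBC/MFC determination. MICs and inhibition zones were obtained by EUCAST/CLSI dilution and disc-diffusion methods, with compounds delivered in DMSO.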

The test system of a further experiment is P. mirabilis ATCC 12453. Nature of the experiment: Antibacterial activity: MIC/MBC, MIC with PAβN, disc-diffusion. In kind it is cell-based, Proteus mirabilis. The settings on record: Proteus mirabilis, ATCC12453. A digest of the protocol: as §1
Setting [4] is: A. baumannii ATCC 19606, read-out: MIC.
[5] abbreviates: E. coli ATCC 25922, read-out: MIC.
Where [6] appears, read: P. aeruginosa ATCC 27853, read-out: MIC.
The mark [7] stands for this setting: S. maltophilia ATCC 13637, read-out: MIC.
Setting [8] is: S. maltophilia ATCC 12714, read-out: MIC.
The mark [9] stands for this setting: B. cepacia ATCC 25416, read-out: MIC.
The mark [10] stands for this setting: B. bronchiseptica ATCC 4617, read-out: MIC.
Setting [11] is: S. aureus ATCC 6538P, read-out: MBC (first MBC where Eagle effect).
The mark [12] stands for this setting: S. aureus ATCC 6538P, read-out: MIC.
[13] abbreviates: P. mirabilis ATCC 12453, read-out: MIC.

≈ marks a conversion by molar mass, not a printed value. Like-named read-outs stand apart in the source and are kept apart here.

Broadly, the MIC is the lowest concentration found to suppress growth. The MBC is the lowest tested concentration that kills the bacteria rather than only halting them. For the compound `CCOP(=O)(OCC)Sc1c(F)cc2c(c1F)[Si](C)(C)OB2O` [Compound 24, S-(5,7-Difluoro-3-hydroxy-1,1-dimethyl-1,3-dihydrobenzo[c][1,2,5]oxasilaborol-6-yl) O,O-diethyl phosphorothioate], the MIC (against A. baumannii ATCC 19606; against E. coli ATCC 25922; against P. aeruginosa ATCC 27853; in [1]; in [2]; against B. cepacia ATCC 25416) was above 400 µg/mL in each case. Besides, the minimal inhibitory concentration (MIC) was above 400 µg/mL in experiment [3], above 400 µg/mL in the experiment with C. tropicalis IBA 171, 6.25 µg/mL (≈ 16.4 µM) with S. aureus ATCC 6538P and above 400 µg/mL in the experiment on P. mirabilis ATCC 12453. Also, in the experiment with S. aureus ATCC 6538P (S. aureus ATCC 6538P), the “diameter of inhibition zone” value came out at 32 mm. Besides, the results for the MBC in the experiment on S. aureus ATCC 6538P (read-out: MBC (first MBC where Eagle effect)) and in the experiment on S. aureus ATCC 6538P (read-out: second MBC (Eagle effect)) were 12.5 µg/mL (≈ 32.7 µM) and above 400 µg/mL, respectively.
For `C[Si]1(C)OB(O)c2ccc(SC(=O)c3ccc(C(F)(F)F)cc3)c(F)c21` [Compound 25, S-(7-Fluoro-3-hydroxy-1,1-dimethyl-1,3-dihydrobenzo[c][1,2,5]oxasilaborol-6-yl) 4-(trifluoromethyl)benzothioate], the MIC (in the experiment on A. baumannii ATCC 19606 (setting [4]); in the experiment with E. coli ATCC 25922 (setting [5]); in the experiment on P. aeruginosa ATCC 27853 (setting [6]); in experiment [1] (setting [7]); in experiment [2] (setting [8]); in the experiment with B. cepacia ATCC 25416 (setting [9])) was above 50 µg/mL each time. In addition, the MIC in [3] (setting [10]) was above 50 µg/mL; with C. tropicalis IBA 171 (read-out: MIC), 50 µg/mL (≈ 125 µM); with S. aureus ATCC 6538P (setting [12]), 12.5 µg/mL (≈ 31.2 µM); in the experiment with P. mirabilis ATCC 12453 (setting [13]), above 50 µg/mL. Moreover, the “diameter of inhibition zone” value in the experiment with S. aureus ATCC 6538P (S. aureus ATCC 6538P) was found to be 11 mm. The minimal bactericidal concentration (MBC) in the experiment with S. aureus ATCC 6538P (setting [11]) stood at 25 µg/mL (≈ 62.5 µM).
Turning to `C[Si]1(C)OB(O)c2cc(F)c(S(=O)(=O)Cl)c(F)c21` [Compound 26, 5,7-Difluoro-3-hydroxy-1,1-dimethyl-1,3-dihydrobenzo[c][1,2,5]oxasilaborole-6-sulfonyl chloride], the minimum inhibitory concentration (MIC) (with A. baumannii ATCC 19606 (setting [4]); with E. coli ATCC 25922 (setting [5]); in the experiment on P. aeruginosa ATCC 27853 (setting [6]); in [1] (setting [7]); in experiment [2] (setting [8]); in the experiment on B. cepacia ATCC 25416 (setting [9])) was above 400 µg/mL throughout. In addition, the MIC is above 400 µg/mL in [3] (setting [10]), above 400 µg/mL in the experiment with C. tropicalis IBA 171 (read-out: MIC), 200 µg/mL in the experiment with S. aureus ATCC 6538P (setting [12]) and above 400 µg/mL with P. mirabilis ATCC 12453 (setting [13]). Further, the “diameter of inhibition zone” value in the experiment with S. aureus ATCC 6538P (S. aureus ATCC 6538P) is on record as 14 mm. For the same compound, in the experiment with S. aureus ATCC 6538P (setting [11]), the MBC is 400 µg/mL.
As for `C[Si]1(C)OB(O)c2cc(F)c(S(N)(=O)=O)c(F)c21` [Compound 27, 5,7-Difluoro-3-hydroxy-1,1-dimethyl-1,3-dihydrobenzo[c][1,2,5]oxasilaborole-6-sulfonamide], the MIC (in the experiment with A. baumannii ATCC 19606 (setting [4]); in the experiment on E. coli ATCC 25922 (setting [5]); with P. aeruginosa ATCC 27853 (setting [6]); in experiment [1] (setting [7]); in experiment [2] (setting [8]); with B. cepacia ATCC 25416 (setting [9])) was above 400 µg/mL in each case. Moreover, the minimum inhibitory concentration (MIC) in experiment [3] (setting [10]) is above 400 µg/mL; in the experiment with C. tropicalis IBA 171 (read-out: MIC), above 400 µg/mL; with S. aureus ATCC 6538P (setting [12]) it was 400 µg/mL (≈ 1360 µM); with P. mirabilis ATCC 12453 (setting [13]), above 400 µg/mL. Also, in the experiment with E. coli ATCC 25922 (E. coli ATCC 25922), the “-fold reduction of MIC in the presence of PAβN” value was 2 -fold.
Take `C[Si]1(C)OB(O)c2cc(F)c(S(=O)(=O)Nc3ccc(F)cc3)c(F)c21` [Compound 28, 5,7-Difluoro-N-(4-fluorophenyl)-3-hydroxy-1,1-dimethyl-1,3-dihydrobenzo[c][1,2,5]oxasilaborole-6-sulfonamide]: the MIC (in the experiment on A. baumannii ATCC 19606 (setting [4]); in the experiment with E. coli ATCC 25922 (setting [5]); in the experiment on P. aeruginosa ATCC 27853 (setting [6]); in experiment [1] (setting [7]); in experiment [2] (setting [8]); in the experiment with B. cepacia ATCC 25416 (setting [9])) was above 400 µg/mL each time. For the same compound, the MIC in [3] (setting [10]) was above 400 µg/mL; with C. tropicalis IBA 171 (read-out: MIC), above 400 µg/mL; in the experiment with S. aureus ATCC 6538P (setting [12]) it was 50 µg/mL (≈ 129 µM); in the experiment on P. mirabilis ATCC 12453 (setting [13]), above 400 µg/mL. Also, the “-fold reduction of MIC in the presence of PAβN” value in the experiment with E. coli ATCC 25922 (E. coli ATCC 25922) is listed as 4 -fold. In the experiment on S. aureus ATCC 6538P (S. aureus ATCC 6538P), the “diameter of inhibition zone” value is 22 mm.
